In the CheMixHub viscosity set:
± gives the uncertainty stated by the source.

Test: xn = mol fraction of the nth substance listed

CN(C)c1ccccc1 + CCCCO
303.15 K, 101 kPa
Settings	viscosity [mPa·s]
x1 = 0.0489	2.2 ± 0.019
x1 = 0.0742	2.187 ± 0.018
x1 = 0.1249	2.156 ± 0.018
x1 = 0.1802	2.12 ± 0.017
x1 = 0.2362	2.079 ± 0.017
x1 = 0.265	2.056 ± 0.017
x1 = 0.2944	2.032 ± 0.016
x1 = 0.3549	1.978 ± 0.016
x1 = 0.419	1.915 ± 0.015
x1 = 0.4854	1.844 ± 0.015
x1 = 0.5905	1.722 ± 0.014
x1 = 0.7423	1.526 ± 0.013
x1 = 0.9099	1.295 ± 0.012

C=CC#N + COC(C)=O
viscosity [mPa·s]
Settings	298.15 K	303.15 K	308.15 K
101.3 kPa, x1 = 0.1018	–	0.3427 ± 0.0031	–
101.3 kPa, x1 = 0.1999	–	0.3428 ± 0.0031	–
101.3 kPa, x1 = 0.3006	–	0.3407 ± 0.0031	–
101.3 kPa, x1 = 0.4001	–	0.338 ± 0.0031	–
101.3 kPa, x1 = 0.4946	–	0.3357 ± 0.0031	–
101.3 kPa, x1 = 0.6012	–	0.3319 ± 0.0031	–
101.3 kPa, x1 = 0.6955	–	0.3283 ± 0.0031	–
101.3 kPa, x1 = 0.8014	–	0.3242 ± 0.0031	–
101.3 kPa, x1 = 0.896	–	0.3198 ± 0.0031	–
101.33 kPa, x1 = 0.0617	0.389 ± 0.006	0.371 ± 0.006	0.354 ± 0.006
101.33 kPa, x1 = 0.1961	0.385 ± 0.006	0.367 ± 0.006	0.351 ± 0.006
101.33 kPa, x1 = 0.3042	0.38 ± 0.006	0.362 ± 0.006	0.349 ± 0.006
101.33 kPa, x1 = 0.4041	0.375 ± 0.006	0.357 ± 0.006	0.345 ± 0.006
101.33 kPa, x1 = 0.5024	0.37 ± 0.006	0.353 ± 0.006	0.34 ± 0.005
101.33 kPa, x1 = 0.6004	0.365 ± 0.006	0.348 ± 0.006	0.335 ± 0.005
101.33 kPa, x1 = 0.7033	0.36 ± 0.006	0.343 ± 0.006	0.33 ± 0.005
101.33 kPa, x1 = 0.8037	0.355 ± 0.006	0.336 ± 0.005	0.322 ± 0.005
101.33 kPa, x1 = 0.8416	0.353 ± 0.006	0.333 ± 0.005	0.319 ± 0.005

CN(C)c1ccccc1 + O=C1CCCCC1
viscosity [mPa·s], 101 kPa
Settings	303.15 K	308.15 K
x1 = 0.0699	1.724 ± 0.061	1.569 ± 0.056
x1 = 0.1269	1.658 ± 0.059	1.502 ± 0.054
x1 = 0.1906	1.587 ± 0.056	1.432 ± 0.051
x1 = 0.2652	1.512 ± 0.054	1.353 ± 0.049
x1 = 0.3251	1.457 ± 0.052	1.299 ± 0.047
x1 = 0.4012	1.395 ± 0.05	1.245 ± 0.045
x1 = 0.4852	1.336 ± 0.048	1.195 ± 0.043
x1 = 0.5602	1.292 ± 0.047	1.161 ± 0.042
x1 = 0.6421	1.254 ± 0.045	1.136 ± 0.041
x1 = 0.7014	1.231 ± 0.045	1.124 ± 0.041
x1 = 0.7745	1.209 ± 0.044	1.114 ± 0.041
x1 = 0.8512	1.192 ± 0.043	1.113 ± 0.041
x1 = 0.9212	1.18 ± 0.043	1.112 ± 0.041

C=CC#N + CCC(C)O
viscosity [mPa·s], 101.33 kPa
Settings	x1 = 0.1033	x1 = 0.2014	x1 = 0.301	x1 = 0.4055	x1 = 0.5087	x1 = 0.6049	x1 = 0.7009	x1 = 0.803	x1 = 0.8992
298.15 K	1.828 ± 0.022	1.319 ± 0.017	0.99 ± 0.013	0.775 ± 0.01	0.63 ± 0.009	0.536 ± 0.008	0.456 ± 0.007	0.418 ± 0.006	0.378 ± 0.006
303.15 K	1.567 ± 0.019	1.165 ± 0.015	0.887 ± 0.012	0.704 ± 0.01	0.582 ± 0.008	0.499 ± 0.007	0.438 ± 0.007	0.391 ± 0.006	0.358 ± 0.006
308.15 K	1.361 ± 0.017	1.024 ± 0.013	0.799 ± 0.011	0.644 ± 0.009	0.539 ± 0.008	0.465 ± 0.007	0.413 ± 0.006	0.373 ± 0.006	0.342 ± 0.005

CN(C)c1ccccc1 + O=S1(=O)CCCC1
viscosity [mPa·s], 101 kPa
Settings	x1 = 0.1056	x1 = 0.2173	x1 = 0.2989	x1 = 0.4055	x1 = 0.5001	x1 = 0.6087	x1 = 0.6965	x1 = 0.798	x1 = 0.9131
303.15 K	7.8 ± 0.16	5.97 ± 0.13	4.93 ± 0.1	3.86 ± 0.08	3.12 ± 0.07	2.47 ± 0.05	2.06 ± 0.04	1.68 ± 0.04	1.36 ± 0.03
308.15 K	6.92 ± 0.15	5.33 ± 0.11	4.44 ± 0.09	3.51 ± 0.07	2.85 ± 0.06	2.26 ± 0.05	1.89 ± 0.04	1.55 ± 0.03	1.26 ± 0.03
313.15 K	6.18 ± 0.13	4.79 ± 0.1	4.01 ± 0.09	3.19 ± 0.07	2.61 ± 0.06	2.08 ± 0.04	1.74 ± 0.04	1.43 ± 0.03	1.17 ± 0.03

CC(C)(C)Br + CCC(C)O
viscosity [mPa·s], 101.3 kPa
Settings	x1 = 0.1001	x1 = 0.2023	x1 = 0.3034	x1 = 0.4041	x1 = 0.5076	x1 = 0.605	x1 = 0.7049	x1 = 0.8014	x1 = 0.8997
298.15 K	2.174 ± 0.02	1.629 ± 0.016	1.302 ± 0.013	1.105 ± 0.011	0.9569 ± 0.0099	0.876 ± 0.0094	0.8006 ± 0.0089	0.768 ± 0.0088	0.7327 ± 0.0086
313.15 K	1.386 ± 0.015	1.108 ± 0.011	0.9333 ± 0.0096	0.8074 ± 0.0085	0.7201 ± 0.0078	0.6655 ± 0.0074	0.6235 ± 0.0071	0.6023 ± 0.0071	0.5859 ± 0.0071

CCCCCCCCCCCCCCCCCC[P+](CCCC)(CCCC)CCCC.N#Cc1ccc[n-]1 + OCCN(CCO)CCO
viscosity [mPa·s], 100 kPa
Settings	293.15 K	298.15 K	303.15 K	313.15 K
x1 = 0.014	971 ± 150	643 ± 96	420 ± 61	192 ± 28
x1 = 0.029	1032 ± 160	613 ± 91	390 ± 57	189 ± 27
x1 = 0.046	1123 ± 170	683 ± 100	439 ± 64	217 ± 31
x1 = 0.085	1228 ± 190	775 ± 120	506 ± 75	248 ± 36
x1 = 0.104	1251 ± 190	794 ± 120	526 ± 78	258 ± 37
x1 = 0.214	1185 ± 180	795 ± 120	538 ± 79	267 ± 39
x1 = 0.286	1096 ± 170	746 ± 110	509 ± 75	257 ± 37
x1 = 0.387	1019 ± 150	704 ± 100	483 ± 71	248 ± 36
x1 = 0.475	928 ± 140	646 ± 96	448 ± 66	233 ± 34
x1 = 0.548	856 ± 130	600 ± 89	422 ± 62	225 ± 32
x1 = 0.73	847 ± 130	614 ± 91	459 ± 67	242 ± 35
x1 = 0.834	925 ± 140	653 ± 97	459 ± 67	244 ± 35

Cn1ccnc1 + CCOC(C)=O
viscosity [mPa·s], 101 kPa
Settings	298.15 K	308.15 K	318.15 K
x1 = 0.0518	0.4901 ± 0.03	0.4509 ± 0.027	0.417 ± 0.025
x1 = 0.1042	0.5183 ± 0.031	0.4734 ± 0.029	0.4355 ± 0.026
x1 = 0.2036	0.5796 ± 0.035	0.524 ± 0.032	0.4789 ± 0.029
x1 = 0.3106	0.661 ± 0.04	0.5919 ± 0.036	0.5383 ± 0.033
x1 = 0.4006	0.7306 ± 0.044	0.6504 ± 0.039	0.587 ± 0.036
x1 = 0.4976	0.826 ± 0.05	0.7281 ± 0.044	0.6494 ± 0.039
x1 = 0.6011	0.9571 ± 0.058	0.8342 ± 0.051	0.7376 ± 0.045
x1 = 0.6961	1.09 ± 0.066	0.9437 ± 0.057	0.8289 ± 0.05
x1 = 0.8012	1.266 ± 0.077	1.082 ± 0.065	0.9423 ± 0.057
x1 = 0.9	1.468 ± 0.089	1.245 ± 0.075	1.074 ± 0.065
x1 = 0.9496	1.57 ± 0.095	1.331 ± 0.081	1.144 ± 0.069
